# Results as given in article PMC6309140, “Synthesis and Evaluation of a New Type of Small Molecule Epigenetic Modulator Containing Imidazo[1,2-b][1,2,4]triazole Motif” (Frontiers in Chemistry, 2018).
# Entries after “also recorded” stand apart in the source; their conditions may differ.
# How the values were obtained:
# HEK 293 F cells = test: Viability assays (CellTiter-Glo, ATP); assay type: cell-based; settings: for IC50: HEK293F, 72 h, viable cells by ATP quantitation, 3 days incubation, Figure 2 says B2-17 cells, method says HEK 293 F cells, read-out: IC50 (relative half maximal growth inhibitory concentration)
# Description: (§1) To identify novel small molecules targeting gene repression, we devised an image-based high-throughput screening system using the engineered HEK 293 F cell (termed as B2-17 cells) as report cell line. A chemical library containing 308,251 small molecules was screened in this system. Purposed for unbiased compound screening, this library had been used in a variety of studies (Sun et al., [2012]; Wang et al., [2013]; Dong et al., [2015]; Li et al., [2016]). Hundred and fifty eight compounds which reactivated reporter genes in more than half of cells were selected as hits. Next, we performed titration experiments for all these hits in the B2-17 cell line. The efficacy of each compound was evaluated by its maximal percentage of EGFP^+ cells in the dose-response curve (maximal RGFP) and relative half maximal effect concentration (EC50). The toxicity of the hits was also tested in parallel, measured by number of viable cells in each treatment. The assay is based on quantitative analysis of ATP, an indicator of metabolically active cells. For each compound, we calculated the relative half maximal growth inhibitory concentration (IC50), based on the abovementioned assay.
# HEK 293 F cells were plated in 384-well, flat-bottom, tissue culture dishes (Corning) and treated with compounds, incubated 3 days, and assayed for viability using the CellTiter-Glo Luminescent Cell Viability Assay (Promega) according to the manufacturer's protocol. The […] with an EnSight plate reader (Perkin Elmer). Data were normalized to the untreated control (100% viability). Each treatment was tested in two independent assays, each containing 3 replicates. The titration-viability curves of each compound were also generated by using Origin 6.0 Pro software.
# [1] = system: EGFP reporter gene silenced by DNA methylation (B2-17 cells); test: Compound effective assay: derepression of EGFP reporter in B2-17 reporter cells (image-based, titration); assay type: cell-based; settings: for Emax: 72 h, read-out: Maximal RGFP% (maximal percentage of EGFP+ cells in the dose-response curve); for Emax / EC50: B2-17 cells, 72 h treatment; for activity of derepressing the EGFP reporter gene silenced by DNA methylation (in words): compared with hit compound LX-3; for EC50: dose-response of EGFP+ cells, read-out: EC50 (relative half maximal effect concentration)
# Description: as §1
# Procedure for cell culture and establishment of the reporter cell line were reported in our previously published paper (Li et al., [2018]).
# Before plating cells, 384-well plates (ViewPlate, PerkinElmer) were coated with PDL (poly-D-lysine, Sigma). For each well, 1,300 B2-17 cells were plated by using a Matrix Wellmate microplate dispenser (Thermo Scientific). Then, 0.25 μL of compound was added to each well by using a versatile pipetting robot, the Biomek FX workstation (Beckman Coulter), to give a final compound concentration of 5 μM. After treatment for 72 h, the cell nuclei were stained by Hoechst 33342 (Sigma) before imaging.
# The cells were imaged with Opera LX (PerkinElmer, three views per well by using 10 x (air) objective lens). Images were analyzed with the Columbus system, the mean percentage of EGFP+ cells (RGFP) was obtained to extrapolate the number of EGFP expressing cells and Hoechst-stained nuclei.
# For the titration assay, the positive compounds were diluted in DMSO at concentrations ranging from 0.625 to 4 mM. Then, the B2-17 cells were treated by gradient compound and imaged as described before.
# For each compound, a dose-response series was generated by using Origin 6.0 Pro software. The dot plot was fit by a DoseResp curve and then the EC50 was calculated.
EC50 [1],Structure (SMILES),IC50 (HEK 293 F cells),Emax [1],activity of derepressing the EGFP reporter gene silenced by DNA methylation (in words) [1],toxicity (in words) (HEK 293 F cells; compared with hit compound LX-3)
–,"Cc1ccsc1-c1nc2n(CC(=O)c3ccc(Br)cc3)c3ccccc3n2n1 [22d, 1-(4-bromophenyl)-2-(2-(3-methylthiophen-2-yl)-4H-benzo[4,5]imidazo[1,2-b][1,2,4]triazol-4-yl)ethan-1-one]",12.3 µM,19%,disappeared,–
–,"O=C(Cn1c2ccccc2n2nc(-c3ccccn3)nc12)c1ccc(Br)cc1 [22e, 1-(4-bromophenyl)-2-(2-(pyridin-2-yl)-4H-benzo[4,5]imidazo[1,2-b][1,2,4]triazol-4-yl)ethan-1-one]",2.8 µM,6%,–,–
4.7 µM,"O=C(Cn1c2ccccc2n2nc(-c3cccs3)nc12)c1nccs1 [9a, 1-(thiazol-2-yl)-2-(2-(thiophen-2-yl)-4H-benzo[4,5]imidazo[1,2-b][1,2,4]triazol-4-yl)ethan-1-one]",8.7 µM,30%,–,–
2.3 µM,"O=C(Cn1c2ccccc2n2nc(-c3cccs3)nc12)c1cccs1 [9c, 1-(thiophen-2-yl)-2-(2-(thiophen-2-yl)-4H-benzo[4,5]imidazo[1,2-b][1,2,4]triazol-4-yl)ethan-1-one]",4.9 µM,40%,–,–
–,"O=C(Cn1c2ccccc2n2nc(-c3cccs3)nc12)c1ccc(F)cc1F [7f, 1-(2,4-difluorophenyl)-2-(2-(thiophen-2-yl)-4H-benzo[4,5]imidazo[1,2-b][1,2,4]triazol-4-yl)ethan-1-one]",17.8 µM,16%,significantly decreased,–
–,"O=C(Cn1c2ccccc2n2nc(-c3ccccc3)nc12)c1ccc(Br)cc1 [22a, 1-(4-bromophenyl)-2-(2-phenyl-4H-benzo[4,5]imidazo[1,2-b][1,2,4]triazol-4-yl)ethan-1-one]",4.4 µM,6%,decreased significantly or even disappeared,–
28 µM,"Cc1cc2c(cc1C)n1nc(-c3cccs3)nc1n2CC(=O)c1ccc(Br)cc1 [14a, 1-(4-bromophenyl)-2-(6,7-dimethyl-2-(thiophen-2-yl)-4H-benzo[4,5]imidazo[1,2-b][1,2,4]triazol-4-yl)ethan-1-one]",3.9 µM,26%,significantly decreased,–
6.2 µM,"COc1ccc(C(=O)Cn2c3ccccc3n3nc(-c4cccs4)nc23)cc1 [7b, 1-(4-methoxyphenyl)-2-(2-(thiophen-2-yl)-4H-benzo[4,5]imidazo[1,2-b][1,2,4]triazol-4-yl)ethan-1-one]",3.1 µM,23%,decreased to some extent,–
1.9 µM,C=CCc1cc(/C=N/Nc2ccc(Br)cc2)cc(OCC)c1OC [LX-1],8.5 µM,72%,–,–
–,"O=C(Cn1c2ccccc2n2nc(-c3cccs3)nc12)c1ccco1 [9b, 1-(furan-2-yl)-2-(2-(thiophen-2-yl)-4H-benzo[4,5]imidazo[1,2-b][1,2,4]triazol-4-yl)ethan-1-one]",–,6.6%,–,–
2.4 µM,"COC(=O)c1ccc(C(=O)Cn2c3ccccc3n3nc(-c4cccs4)nc23)cc1 [7d, methyl 4-(2-(2-(thiophen-2-yl)-4H-benzo[4,5]imidazo[1,2-b][1,2,4]triazol-4-yl)acetyl)benzoate]",10.2 µM,73%,significantly increased; also recorded: slightly better activity,less toxicity
2.2 µM,CCc1ccc(CNc2ccc(CNc3ncn[nH]3)cc2)cc1 [LX-2],7.8 µM,67%,–,–
5.8 µM,"O=C(Cn1c2ccccc2n2nc(-c3cccs3)nc12)c1ccc(O)cc1 [7h, 1-(4-hydroxyphenyl)-2-(2-(thiophen-2-yl)-4H-benzo[4,5]imidazo[1,2-b][1,2,4]triazol-4-yl)ethan-1-one]",16.7 µM,56%,decreased to some extent,–
–,"O=C(O)c1ccc(C(=O)Cn2c3ccccc3n3nc(-c4cccs4)nc23)cc1 [7j, 4-(2-(2-(thiophen-2-yl)-4H-benzo[4,5]imidazo[1,2-b][1,2,4]triazol-4-yl)acetyl)benzoic acid]",4.8 µM,7%,decreased to some extent,–
–,"N#Cc1ccc(-c2nc3n(CC(=O)c4ccc(Br)cc4)c4ccccc4n3n2)s1 [compound 27, 5-(4-(2-(4-bromophenyl)-2-oxoethyl)-4H-benzo[4,5]imidazo[1,2-b][1,2,4]triazol-2-yl)thiophene-2-carbonitrile]",–,6%,significant decrease or disappearance,–
21.8 µM,"O=C(Cn1c2ccc(Br)cc2n2nc(-c3ccc(Br)s3)nc12)c1ccc(Br)cc1 [17c, 2-(7-bromo-2-(5-bromothiophen-2-yl)-4H-benzo[4,5]imidazo[1,2-b][1,2,4]triazol-4-yl)-1-(4-bromophenyl)ethan-1-one]",3.8 µM,28%,–,–
4.2 µM,Cc1cc(NC(=O)CSc2nc3ccc(Br)cc3c3nc4ccccc4n23)no1 [LX-6],5 µM,71%,–,–
29.9 µM,"Cc1ccc(-c2ccc(-c3nc4n(CC(=O)c5ccc(Br)cc5)c5ccccc5n4n3)s2)cc1 [compound 25, 1-(4-bromophenyl)-2-(2-(5-(p-tolyl)thiophen-2-yl)-4H-benzo[4,5]imidazo[1,2-b][1,2,4]triazol-4-yl)ethan-1-one]",10.9 µM,61%,significant decrease or disappearance,–
14.9 µM,"O=C(Cn1c2ccccc2n2nc(-c3cccs3)nc12)c1ccc([N+](=O)[O-])cc1 [7c, 1-(4-nitrophenyl)-2-(2-(thiophen-2-yl)-4H-benzo[4,5]imidazo[1,2-b][1,2,4]triazol-4-yl)ethan-1-one]",11.9 µM,41%,decreased to some extent,–
–,"O=C(Cn1c2ccccc2n2nc(-c3cccs3)nc12)c1c(F)c(F)c(F)c(F)c1F [7g, 1-(perfluorophenyl)-2-(2-(thiophen-2-yl)-4H-benzo[4,5]imidazo[1,2-b][1,2,4]triazol-4-yl)ethan-1-one]",1.1 µM,10%,significantly decreased,–
6.4 µM,"O=C(Cn1c2ccccc2n2nc(Cc3ccccc3)nc12)c1ccc(Br)cc1 [22f, 2-(2-benzyl-4H-benzo[4,5]imidazo[1,2-b][1,2,4]triazol-4-yl)-1-(4-bromophenyl)ethan-1-one]",4.7 µM,< 22%,–,–
4.5 µM,"O=C(Cn1c2ccccc2n2nc(-c3nccs3)nc12)c1ccc(Br)cc1 [22c, 1-(4-bromophenyl)-2-(2-(thiazol-2-yl)-4H-benzo[4,5]imidazo[1,2-b][1,2,4]triazol-4-yl)ethan-1-one]",5.3 µM,48%,–,–
6.8 µM,"COc1ccccc1-c1nc2n(CC(=O)c3ccc(Br)cc3)c3ccccc3n2n1 [22b, 1-(4-bromophenyl)-2-(2-(2-methoxyphenyl)-4H-benzo[4,5]imidazo[1,2-b][1,2,4]triazol-4-yl)ethan-1-one]",3.3 µM,21%,decreased significantly or even disappeared,–
–,"CC(C)(C)c1nc2n(CC(=O)c3ccc(Br)cc3)c3ccccc3n2n1 [22g, 1-(4-bromophenyl)-2-(2-(tert-butyl)-4H-benzo[4,5]imidazo[1,2-b][1,2,4]triazol-4-yl)ethan-1-one]",8.3 µM,–,–,–
